In patent US20160362416A1, “ANTIVIRAL COMPOUNDS” (Gilead Sciences, Inc., priority 2012, published 2016):

How the values were obtained:
[1] = test system: Y93N in genotype 1a NS5A replicon; test: Resistance mutant replicon assay, genotype 1a NS5A Y93N; assay type: cell-based, HCV; conditions: Hepatitis C virus, read-out: 1a Y93N (nM)
Procedure: (§1) Evaluation of cell-based anti-HCV activity: Antiviral potency (EC50) was determined using a Renilla luciferase (RLuc)-based HCV replicon reporter assay. To perform the assay for genotype 1 and 2a JFH-1, stable HCV 1a RLuc replicon cells (harboring a dicistronic genotype 1a H77 replicon that encodes a RLuc reporter), stable HCV lb RLuc replicon cells (harboring a dicistronic genotype 1b Conl replicon that encodes a RLuc reporter), or stable HCV 2a JFH-1 Rluc replicon cells (harboring a dicistronic genotype 2a JFH-1 replicon that encodes a RLuc reporter; with L31 present in NS5A) were dispensed into 384-well plates for EC50 assays. To perform the assay for genotype 2a (with M31 present in NS5A) or 2b, NS5A chimeric genotype 2a JFH-1 replicons that encodes a RLuc-Neo reporter and either genotype 2a J6 strain NS5A gene or genotype 2b MD2b-1 strain NS5A gene (both with M31 present) respectively, were either transiently transfected (t) into Huh-Lunet cells or were established as stably replicating replicon cells (s) is provided. Either cells were dispensed into 384-well plates for EC50 assays. To perform the assay for genotype 3 and 4, NS5A chimeric genotype 1b Conl replicons that encodes a Pi-RLuc reporter and either genotype 3a S52 strain NS5A gene or genotype 4a ED43 strain NS5A gene respectively, were transiently transfected (t) into Huh-Lunet cells, which were subsequently dispensed into 384-well plates. Compounds were dissolved in DMSO at a concentration of 10 mM and diluted in DMSO either manually or using an automated pipeting instrument. Serially 3-fold diluted compounds were either manually mixed with cell culture media and added to the seeded cells or directly added to the cells using an automated instrument. DMSO was used as a negative (solvent; no inhibition) control, and the protease inhibitor ITMN-191 was included at a concentration >100×EC50 as a positive control. 72 hours later, cells were lysed and Renilla luciferase activity quantified as recommended by the manufacturer (Promega-Madison, Wis.). Non-linear regression was performed to calculate EC50 values.
(§2) To determine the antiviral potency (EC50) against resistance mutants, resistance mutations, including M28T, Q30R, Q30H, Q30E, L31M, Y93C, Y93H, and Y93N in genotype 1a NS5A, Y93H and L31V/Y93H in genotype 1b NS5A, and Y93H for in genotype 3a NS5A, were introduced individually into either 1a Pi-Rluc or 1b Pi-Rluc replicons by site directed mutagenesis. Replicon RNA of each resistant mutant was transiently transfected into Huh-7-derived cured-51 cells and antiviral potency was determined on these transfected cells as described above.

[2] = test system: Q30E in genotype 1a NS5A replicon; test: Resistance mutant replicon assay, genotype 1a NS5A Q30E; assay type: cell-based, HCV; conditions: Hepatitis C virus, read-out: 1a Q30E (nM)
Procedure: as §1, §2

[3] = test system: stable HCV 1b RLuc replicon cells (genotype 1b Con1 replicon); test: HCV genotype 1b RLuc replicon reporter assay; assay type: cell-based; conditions: Hepatitis C virus; stable genotype 1b Con1 RLuc replicon cells, 72 hours
Procedure, shortened: (§3)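 Stable 1b Con1 RLuc replicon cells, or Huh-Lunet cells transiently transfected with chimeric replicons (Con1 backbone carrying 3a S52 or 4a ED43 NS5A; JFH-1 backbone carrying 2b MD2b-1 NS5A, M31), treated with 3-fold dilutions for 72 h. Renilla luciferase read after lysis; EC50 by non-linear regression.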

[4] = test system: Y93H in genotype 1a NS5A replicon; test: Resistance mutant replicon assay, genotype 1a NS5A Y93H; assay type: cell-based, HCV; conditions: Hepatitis C virus, read-out: 1a Y93H (nM)
Procedure: as §1, §2

[5] = test system: Y93H in genotype 3a NS5A replicon; test: Resistance mutant replicon assay, genotype 3a NS5A Y93H; assay type: cell-based, HCV; conditions: Hepatitis C virus, read-out: 3a Y93H (nM)
Procedure: as §1, §2

[6] = test system: NS5A chimeric genotype 1b Con1 replicon with genotype 4a ED43 strain NS5A gene; test: HCV genotype 4a NS5A chimeric replicon assay; assay type: cell-based; conditions: Hepatitis C virus, 72 h, read-out: 4a (s) (nM)
[7] = test system: stable HCV 1a RLuc replicon cells (genotype 1a H77 replicon); test: HCV genotype 1a RLuc replicon reporter assay; assay type: cell-based; conditions: Hepatitis C virus; stable genotype 1a H77 RLuc replicon cells, 72 hours
[8] = test system: NS5A chimeric genotype 2a JFH-1 replicon with genotype 2b MD2b-1 strain NS5A gene (M31); test: HCV genotype 2b NS5A chimeric replicon assay, stable (s); assay type: cell-based; conditions: Hepatitis C virus, 72 h, read-out: 2b (s) (nM)
[9] = test system: NS5A chimeric genotype 2a JFH-1 replicon with genotype 2b MD2b-1 strain NS5A gene (M31); test: HCV genotype 2b NS5A chimeric replicon assay, transient (t); assay type: cell-based; conditions: Hepatitis C virus, 72 h, read-out: 2b (t) (nM)
Procedure: as §1

[10] = test system: stable HCV 2a JFH-1 Rluc replicon cells (L31 present in NS5A); test: HCV genotype 2a JFH-1 RLuc replicon reporter assay; assay type: cell-based; conditions: Hepatitis C virus, 72 h, read-out: 2a JFH (nM)
[11] = test system: NS5A chimeric genotype 1b Con1 replicon with genotype 3a S52 strain NS5A gene; test: HCV genotype 3a NS5A chimeric replicon assay; assay type: cell-based; conditions: Hepatitis C virus, 72 h, read-out: 3a (nM)
Procedure, shortened: as §3

[12] = test system: NS5A chimeric genotype 2a JFH-1 replicon with genotype 2a J6 strain NS5A gene (M31); test: HCV genotype 2a J6 NS5A chimeric replicon assay, transient (t); assay type: cell-based; conditions: Hepatitis C virus, 72 h, read-out: 2a J6 (t) (nM)

| Compound | EC50 [1] [nM] | EC50 [2] [nM] | EC50 [3] [pM] | EC50 [4] [nM] | EC50 [5] [nM] | EC50 [6] [nM] | EC50 [7] [pM] | EC50 [8] [nM] | EC50 [9] [nM] | EC50 [10] [nM] | EC50 [11] [nM] | EC50 [12] [nM] |
| --- | --- | --- | --- | --- | --- | --- | --- | --- | --- | --- | --- | --- |
| COC(=O)N[C@H](C(=O)N1[C@@H](C)CC[C@H]1c1ncc(-c2ccc3c(c2)COc2cc4c(ccc5nc([C@@H]6C[C@H](C)CN6C(=O)[C@@H](NC(=O)OC)C6CCOCC6)[nH]c54)cc2-3)[nH]1)C(C)C [Comp 13, reference compound] | 2.13 | 0.371 | 48 | 1.07 | 4.4 | 4.4 | 25 | 0.048 |  |  |  |  |
| COC(=O)N[C@H](C(=O)N1[C@@H](C)CC[C@H]1c1ncc(-c2ccc3c(c2)COc2cc4c(ccc5nc([C@@H]6C[C@H](C)CN6C(=O)[C@@H](NC(=O)OC)C6C[C@@H](C)O[C@H](C)C6)[nH]c54)cc2-3)[nH]1)C(C)C (stereo partly drawn) [Example AV, methyl {(2S)-1-[(2S,5S)-2-(5-{2-[(2S,4S)-1-{(2S)-2-[(2R,6R)-2,6-dimethyltetrahydro-2H-pyran-4-yl]-2-[(methoxycarbonyl)amino]acetyl}-4-methylpyrrolidin-2-yl]-1,11-dihydroisochromeno[4′,3′:6,7]naphtho[1,2-d]imidazol-9-yl}-1H-imidazol-2-yl)-5-methylpyrrolidin-1-yl]-3-methyl-1-oxobutan-2-yl}carbamate] | 1.05 |  | 36 | 0.14 | 2.39 | 0.013 | 36 |  | 0.015 | 0.011 | 0.029 | 0.008 |
| CC[C@H]1C[C@@H](c2ncc(-c3ccc4c(c3)COc3cc5c(ccc6nc([C@@H]7CC[C@H](C)N7C(=O)[C@@H](NC(=O)OC)C(C)C)[nH]c65)cc3-4)[nH]2)N(C(=O)[C@@H](NC(=O)OC)C2C[C@@H](C)O[C@H](C)C2)C1 (stereo partly drawn) [Example AE, Methyl [(1S)-1-[(2R,6R)-2,6-dimethyltetrahydro-2H-pyran-4-yl]-2-{(2S,4S)-4-ethyl-2-[5-(2-{(2S,5S)-1-[N-(methoxycarbonyl)-L-valyl]-5-methylpyrrolidin-2-yl}-1,11-dihydroisochromeno[4′,3′:6,7]naphtho[1,2-d]imidazol-9-yl)-1H-imidazol-2-yl]pyrrolidin-1-yl}-2-oxoethyl]carbamate] | 1.12 |  | 22 | 0.23 | 6.93 | 0.011 | 24 |  | 0.038 | 0.012 | 0.027 | 0.042 |
| COC(=O)N[C@H](C(=O)N1[C@H](c2ncc(-c3ccc4c(c3)COc3cc5c(ccc6nc([C@@H]7CC[C@H](C)N7C(=O)[C@@H](NC(=O)OC)C7C[C@@H](C)O[C@H](C)C7)[nH]c65)cc3-4)[nH]2)C[C@@H]2CCC[C@@H]21)C(C)C (stereo partly drawn) [Example AY, methyl {(2S)-1-[(2S,3aS,6aS)-2-(5-{2-[(2S,5S)-1-{(2S)-2-[(2R,6R)-2,6-dimethyltetrahydro-2H-pyran-4-yl]-2-[(methoxycarbonyl)amino]acetyl}-5-methylpyrrolidin-2-yl]-1,11-dihydroisochromeno[4′,3′:6,7]naphtho[1,2-d]imidazol-9-yl}-1H-imidazol-2-yl)hexahydrocyclopenta[b]pyrrol-1(2H)-yl]-3-methyl-1-oxobutan-2-yl}carbamate] | 1.18 |  | 28 | 0.531 | 8.48 | 0.011 | 27 |  | 0.03 | 0.018 | 0.023 | 0.013 |
| COC(=O)N[C@H](C(=O)N1[C@H](c2ncc(-c3ccc4c(c3)COc3cc5c(ccc6nc([C@@H]7CC[C@H](C)N7C(=O)[C@@H](NC(=O)OC)C7CCOCC7)[nH]c65)cc3-4)[nH]2)C[C@@H]2CCC[C@@H]21)C(C)C [Comp 8, reference compound] | 4.58 | 0.979 | 40 | 1.9 |  |  | 28 | 0.113 |  |  | 0.071 |  |
| COC(=O)N[C@H](C(=O)N1[C@@H](C)CC[C@H]1c1ncc(-c2ccc3c(c2)COc2cc4c(ccc5nc([C@@H]6CCCN6C(=O)[C@@H](NC(=O)OC)C6C[C@@H](C)O[C@H](C)C6)[nH]c54)cc2-3)[nH]1)C(C)C (stereo partly drawn) [Example AW, methyl {(2S)-1-[(2S,5S)-2-(5-{2-[(2S)-1-{(2S)-2-[(2R,6R)-2,6-dimethyltetrahydro-2H-pyran-4-yl]-2-[(methoxycarbonyl)amino]acetyl}pyrrolidin-2-yl]-1,11-dihydroisochromeno[4′,3′:6,7]naphtho[1,2-d]imidazol-9-yl}-1H-imidazol-2-yl)-5-methylpyrrolidin-1-yl]-3-methyl-1-oxobutan-2-yl}carbamate] | 1.47 |  | 70 | 0.704 | 1.51 | 0.008 | 29 |  | 0.029 | 0.011 | 0.015 | 0.021 |
| COC(=O)N[C@H](C(=O)N1[C@@H](C)CC[C@H]1c1ncc(-c2ccc3c(c2)COc2cc4c(cc2-3)CCc2nc([C@@H]3CC[C@H](C)N3C(=O)[C@@H](NC(=O)OC)C3C[C@@H](C)O[C@H](C)C3)[nH]c2-4)[nH]1)C1C[C@@H](C)O[C@H](C)C1 (stereo partly drawn) [Example BF, methyl {(1S)-1-[(2R,6R)-2,6-dimethyltetrahydro-2H-pyran-4-yl]-2-[(2S,5S)-2-(9-{2-[(2S,5S)-1-{(2S)-2-[(2R,6R)-2,6-dimethyltetrahydro-2H-pyran-4-yl]-2-[(methoxycarbonyl)amino]acetyl}-5-methylpyrrolidin-2-yl]-1H-imidazol-5-yl}-1,4,5,11-tetrahydroisochromeno[4′,3′:6,7]naphtho[1,2-d]imidazol-2-yl)-5-methylpyrrolidin-1-yl]-2-oxoethyl}carbamate] | 0.125 |  | 49 | 0.035 | 0.365 | 0.025 | 48 | 0.042 |  | 0.021 | 0.065 | 0.035 |
